In patent publication US12577273B2, “Small molecule modulators of gut bacterial bile acid metabolism” (priority 2019, dated 2026):
Read-outs that look alike come from different tables or passages of the source.

Columns and labels:
B. theta BSH = B. theta BSH (Bacteroides thetaiotaomicron, UniProt Q8A600); assay: Compound 7 kinetic studies (time to complete inhibition); assay type: biochemical
Method: Formation of deconjugated bile acid was measured using a UPLC-MS-based assay and reported as % conversion.
Compound 7 Kinetic Studies. […] B. theta BSH (200 nM) was added to a pool of 100 μM bile acid pool and 100 μM 7. 500 μL aliquots were removed at indicated time points and flash frozen in liquid nitrogen. […] Procedure was repeated with 8.2 mM TUDCA.

B. theta cultures = assay: BSH inhibition in growing B. theta cultures, single substrate (GUDCA or TUDCA); assay type: cell-based, Bacteroides thetaiotaomicron; details: 10 μM inhibitor, 100 μM GUDCA
B. adolescentis BSH = assay: Target validation and off-target profiling in B. adolescentis using 7-N3; assay type: cell-based, Bifidobacterium adolescentis L2-32; details: decreasing concentrations of 7 for 1 h, then 10 μM 7-N3
Method: Target Validation and Off-target Profiling in B. adolescentis using 7-N3. Pilot studies with 7-N3 were performed using B. adolescentis (Gram positive) and B. theta (Gram negative). We chose to use B. adolescentis due to the stronger total fluorescent signal detected by-in gel fluorescence. […] Cultures were allowed to grow anaerobically at 37° C. for 21 h. 10 μM 7-N3 (10 mM stock in DMSO) or […] DMSO (to control tubes) was then added to the cultures and incubated anaerobically at 37° C. for 1 h. The cultures were centrifuged at 2,500 g at 4° C. for 15 mins. The media was decanted and cells were resuspended in PBS containing 1 mM TCEP and 1 mM PMSF and centrifuged 4,200 rpm at 4° C. for 15 mins. The buffer was decanted and the cells were suspended in 300 μL of fresh buffer and transferred to homogenizing tubes (Precellys lysing kit tough micro-organism lysing VK05 tubes) with ceramic beads. The suspension was then homogenized (5000 speed for 90 s*2, 6500 speed for 60 s) and spun down for 20 min at 15,000 g at 4° C. The supernatant was removed and the concentration of proteins in the lysate was quantified by Bradford assay. The lysates were then subjected to click reaction as per “Click Chemistry for In-gel Fluorescence Imaging” for fluorescence imaging and “Click Chemistry for MS/MS on Bacterial Lysate” for mass spectrophotometer-based quantification and identification.
Cultures were allowed to grow anaerobically at 37° C. for 21 h. Decreasing concentrations of 7 were added to different tubes and the cultures were incubated anaerobically at 37° C. for 1 h. 10 μM 7-N3 was then added to the cultures and incubated anaerobically at 37° C. for an additional hour. The cultures were further processed as per the reported method in “Target Validation and Off-target Profiling in B. adolescentis using 7-N3” and “Click Chemistry for In-gel Fluorescence Imaging”.
Click Chemistry for In-gel Fluorescence Imaging. Click reactions were performed on 25 μL scale. Lysates (normalized to 1.5 mg/mL for both bacterial and mammalian cells) pretreated with 10 μM Compound 7-N3 were incubated with 100 μM fluor 488-alkyne (10 mM stock in DMSO), 100 μM CuBr (5 mM stock in DMSO), and 100 μM Tris[(1-benzyl-1H-1,2,3-triazol-4-yl)methyl]amine (5 mM stock in 4:1 t-BuOH:DMSO) for 1 h at 37° C. in the dark. 10 μL of 2×Laemmli buffer (containing 5% β-mercaptoethanol) was added to the reactions and the tubes were heated at 95° C. for 10 mins. 15 μL of the protein samples were then resolved by 10% SDS-PAGE. The ladder was diluted 100-fold and 10 μL was loaded. Gels were destained for 30 mins using 40% methanol, 50% acetic acid, 10% water and visualized using Bio-Rad ChemiDoc MP Imaging System. Gels were stained for 20 mins in Coomassie blue and destained for 2 h prior to imaging.
Click Chemistry for MS/MS on Bacterial Lysate. Click reactions were performed on 100 μL scale. Lysates (normalized to 1.3 mg/mL) pretreated with 10 μM 7-N3 were incubated with 100 μM desthiobiotin-PEG4-alkyne (10 mM stock in DMSO), 1 mM CuBr (50 mM stock in DMSO), and 1 mM Tris[(1-benzyl-1H-1,2,3-triazol-4-yl)methyl]amine (50 mM stock in 4:1 t-BuOH:DMSO) for 1 h at 37° C. The samples were then processed for further analysis as per “Proteomic Analysis of Click-Tagged Proteins”.
Proteomic Analysis of Click-Tagged Proteins.

C57BL/6 mice = assay type: in vivo, mouse; details: single gavage 10 mg/kg; for BSH activity in feces: 1 day and 1.5 days post-gavage
Method: Mice were split into two groups of four mice each and were gavaged with either 200 μL of corn oil containing 5% DMSO (vehicle group) or with 200 μL of corn oil containing 7 at a concentration of 1.25 mg/mL (experimental group). For the fecal pellet collection, each mouse was transferred to a temporary cardboard cage for a few minutes until it defecated.
Quantification of Bile Acids in Tissues and Plasma.
Determination of Microbial Biomass by Plating. Frozen fecal pellets were used to determine colony forming units (CFU/g). Feces were suspended in PBS buffer in an anaerobic chamber. Serial dilutions were plated on CHG agar plates (see “Bacterial Culturing”) and incubated at 37° C.
Isolation of Fecal Bacterial Microbiota and 16S rRNA Gene Sequencing Analysis. Mouse fecal microbiota DNA was isolated by using ZymoBIOMICS 96 DNA Kit (ZymoBIOMICS™) according to the manufacturer's instructions. […]
Gel electrophoresis was used to check the success of PCR amplification. The concentration of the PCR product was measured by the Quan-IT dsDNA high sensitivity assay. ˜120 ng of DNA of each PCR product was pooled together to generate an aggregated library for downstream processing. PCR DNA amplicons between 300-500 bp were selected from the aggregated library on a targeted size selection platform (pippin prep 1.5% agarose cassette from Sage Sciences) according to the manufacturer's instructions. The size of DNA amplicons was characterized on an Agilent Technologies 2100 bioanalyzer trace. DNA concentration of the aggregated library was measured by the Quant-IT dsDNA high sensitivity assay. […] 600 ul of the denatured and diluted library with 20% phiX spike-in (120 ul, 7.5 pM of phiX) was loaded onto the MiSeq V2 reagent cartridge (Illumina) and was sequenced with paired-end 250 bp reads using the custom primers described above. […] The resulting FASTQ sequences were then quality-filtered and analyzed by following QIIME_mothur_DADA2.^56-59 Operational Taxonomic Units (OTUs) were picked with 97% sequence similarity. […]

In the case of `C[C@H](CCC(=O)CF)[C@H]1CC[C@H]2[C@@H]3[C@H](O)C[C@@H]4C[C@H](O)CC[C@]4(C)[C@H]3CC[C@]12C` [Compound 7], the “time to complete inhibition of B. theta BSH” value (B. theta BSH; 100 μM 7 equimolar to substrate, no preincubation) is reported as no more than 15 s, the “time to entire inhibition of B. theta BSH activity” value (B. theta BSH; large excess (~80-fold) of substrate (8.2 mM TUDCA)) is reported as no more than 15 min and the “deconjugation of GUDCA in growing B. theta cultures (in words)” value (B. theta cultures) is reported as “nearly complete inhibition of deconjugation”. The “competition of 7 with 7-N3 for labeling of B. adolescentis BSH” value (B. adolescentis BSH) was “dose-dependent labeling”, the “BSH activity in feces” value (C57BL/6 mice; 10 mg/kg) was “significant decrease in BSH activity in feces” and the “BSH activity in feces” value (C57BL/6 mice; listed as compound 7, 10 mg/kg) was “significantly lower”. The “fecal deoxycholic acid (DCA)” value (C57BL/6 mice; 1 day post-gavage) was “a decrease in the deconjugated secondary bile acid deoxycholic acid (DCA) was observed”.
